Results published in patent publication US8877932B2, “Anhydrous lenalidomide form-I” (Natco Pharma Limited, priority 2010, dated 2014).
In brackets after ≈: the same amount, converted by molar mass. Where two headings read alike, the source gives them in different places.

What was measured:
[1] = reported in US 2005/0096351 A1; cited from earlier work
[2] = Equilibrium solubility; assay type: physicochemical; conditions: pH 1.8, 1% sodium lauryl sulfate
Description: A solid sample of 450 mg was stirred in 50 mL of dissolution medium (HCl buffer, pH 1.8, with 1% sodium lauryl sulfate) using a mechanical stir rod. Aliquots were filtered and centrifuged at 3500 rpm using 0.2-μm nylon syringe filters and immediately diluted 1 mL→50 mL, then 5 mL→425 mL with dissolution medium. In some cases, the undissolved solids were recovered and sent for X-ray powder diffraction (XPRD) studies.
(§1) Both the solubility and dissolution experiments were conducted in a medium of HCl buffer, pH 1.8, containing 1% sodium lauryl sulfate. The solubilities were estimated to be 3.15 mg/ml for Form 1 & 3.28 mg/ml for Form B, respectively.

[3] = Intrinsic dissolution (Woods apparatus); assay type: physicochemical; conditions: HCl buffer, pH 1.8, 1% sodium lauryl sulfate, 37° C., 50 rpm
Description: Dissolution experiments were carried out in a ELECTROLAB-8 dissolution apparatus equipped with a ETC-112 temperature controller. An intrinsic dissolution apparatus (Woods apparatus) was used. Samples were compressed at 2.0 metric tons for 1 min in KBr hydraulic press, giving a sample surface of 0.50 cm^2. A dissolution medium consisting of 900 mL HCl buffer, pH 1.8, with 1% sodium lauryl sulfate, was used for each experiment. The medium was degassed by vacuum filtration through a 0.45-μm nylon filter disk and maintained at 37° C. The apparatus was rotated at 50 rpm for each experiment. Aliquots were filtered immediately using 0.45-μm nylon syringe filters. In some cases, the undissolved solids were recovered and analyzed by X-ray powder diffraction (XRPD).
as §1

[4] = Moisture content of prepared Form-I samples; assay type: physicochemical; conditions: samples as prepared
[5] = Accelerated stability studies; assay type: physicochemical
Description: The lenalidomide Form I sample are subjected to accelerated stability studies under following conditions & analyzed at initial after 1, 2, 3 and 6 months. • Condition 1—temperature: 40° C.±2° C. • Relative humidity: 75% RH±5% • Condition 1—temperature: 30° C.±2° C. • Relative humidity: 65% RH±5%
We have not observed major deviation in quality of samples analysed of initial samples after 1,2, 3 and 6 months.
No increase in impurity profile is observed in 1,2, 3 and 6 months sample.

[6] = Encapsulated Form I compared with […] capsules (XRPD, moisture content); assay type: physicochemical
Source text: The sample of lenalidomide Form I API is encapsulated & compared with the […] capsules.

[7] = Bulk density; assay type: physicochemical
Source text: Batch No—0812/006 • Untapped Density—0.286 g/ml • Tapped density—0.481 g/ml • III. Batch No—0812/006 • Untapped Density—0.286 g/ml • Tapped density—0.481 g/ml

[8] = Storage stability at room temperature; assay type: physicochemical; conditions: more than a year at room temperature (25-35° C.)
Description: The thus obtained anhydrous novel form is very stable at room temperature (25-35° C.) and is not absorbing water or converting to any reported hydrated forms.

[9] = Humidity test; assay type: physicochemical
Description: The anhydrous form of lenalidomide along with two batches (0812/006 & 0812/007 &) were subjected for humidity test.
NaBr, NH4Cl, KOH, Na2HPO4 were used as Saturated solution at temperature 25.1° C., 25° C., 24.7° C., 26.8° C. and humidity 84%, 79%, 23%, 93% respectively at initial water content of 0.08%.

[10] = Thermal stability of Lenalidomide Form I; assay type: physicochemical; conditions: heating at 95 to 105° C. for 7 days
Description: The lenalidomide Form I obtained after drying temperature 65 to 75° C. under vacuum is taken subjected to heating at 95 to 105° C. in oil bath, kept in rotator vapor for 7 days, cool to room temperature and the sample is analyzed per IR, NMR, XRPD (X-ray powder diffractometry), DSC (differential scanning calorimetry) & TGA (thermogravimetry). […] The moisture content is also determined for sample and found to be less than 1%.

[11] = 40° C./75% RH and 30° C./65% RH, 1, 2, 3 and 6 months

Nc1cccc2c1CN(C1CCC(=O)NC1=O)C2=O (centres unmarked) [Form A, 3-(4-amino-1-oxo-1,3-dihydro-isoindol-2-yl)-piperidine-2,6-Dione]
hygroscopicity [1]: not hygroscopic

Nc1cccc2c1CN(C1CCC(=O)NC1=O)C2=O (centres unmarked) [Form-B, 3-(4-amino-1-oxo-1,3-dihydro-isoindole-2-yl)-piperidine-2,6-dione, reference compound]
solubility ([2]; HCl buffer, 25° C.): 3280 µg/mL (≈ 12.7 mM)
dissolution rate [3]: 0.250 mg/min/cm^2
moisture content [1]: 3.1%

Nc1cccc2c1CN(C1CCC(=O)NC1=O)C2=O (centres unmarked) [Form-E, 3-(4-amino-1-oxo-1,3-dihydro-isoindole-2-yl)-piperidine-2,6-dione]
moisture content [1]: 11.9%

Nc1cccc2c1CN(C1CCC(=O)NC1=O)C2=O (centres unmarked) [Form-I, 3-(4-amino-1-oxo-1,3-dihydro-isoindole-2-yl)-piperidine-2,6-dione]
solubility ([2]; HCl buffer with 1% sodium lauryl sulfate, 25 °C, pH 1.8, aqueous with cosolvent or surfactant or cyclodextrin, thermodynamic from solid, read-out: solubility): 3150 µg/mL (≈ 12.1 mM)
moisture content [4]: less than 0.1%
dissolution rate [3]: 0.421 mg/min/cm^2
impurity profile [5, 11]: No increase
moisture content after accelerated stability storage [5, 11]: 0.21 % w/w
conversion to hydrated polymorphic form ([5]; 40° C./75% RH and 30° C./65% RH, up to 6 months): not converted in any of the hydrated polymorphic form
moisture content, initial ([5]; before accelerated stability storage): 0.09 % w/w
polymorphic form after encapsulation (XRPD) [6]: not changed even after encapsulation
Tapped density ([7]; listed as 0812/005): 0.465 g/mL
Untapped Density ([7]; listed as 0812/005): 0.278 g/mL
Tapped density ([7]; listed as 0812/006): 0.481 g/mL
Untapped Density ([7]; listed as 0812/006): 0.286 g/mL
conversion to hydrated form on storage [8]: not converted into any hydrated from
water content after humidity test ([9]; KOH saturated solution, 24.7° C., humidity 23%): 0.12 % w/w
water content after humidity test ([9]; NH4Cl saturated solution, 25° C., humidity 79%): 0.13 % w/w
water content after humidity test ([9]; Na2HPO4 saturated solution, 26.8° C., humidity 93%): 0.10 % w/w
water content after humidity test ([9]; NaBr saturated solution, 25.1° C., humidity 84%): 0.21 % w/w
initial water content ([9]; before humidity test): 0.08%
change in impurity profile [10]: No further change
change in spectral data (IR, NMR, XRPD, DSC, TGA) [10]: No change is observed
moisture content after heating [10]: less than 1%
